According to paper PMC8050276, “Estradiol analogs attenuate autophagy, cell migration and invasion by direct and selective inhibition of TRPML1, independent of estrogen receptors” (Scientific Reports, 2021):
Several values for one entry are separate records, joined by “and”; a condition that tells them apart may be missing. Equal entries are not always repeated. Entries after “also recorded” stand apart in the source; their conditions may differ. Where two headings read alike, the source gives them in different places.

Key:
Type in all cases: cell-based
human ERα = biological target: T1, human ERα (Homo sapiens, UniProt P03372); assay: Yeast estrogen receptor assay (YES-assay), Saccharomyces cerevisiae transfected with human ERα, lacZ reporter; details: 0.01-100 µM, 48 h
T1 construct: host or cells: Saccharomyces cerevisiae
Method: The yeast estrogen receptor assay (YES-assay) was provided by Dr. J.P. Sumpter (Brunel University, Uxbridge, UK; Routledge & Sumpter, 1996) and was used to determine the relative transactivation activity of the human ERα in response to test substances as previously described. Briefly, Saccharomyces cerevisiae stably transfected with a human ERα construct and an estrogen responsive element fused to the reporter gene lacZ encoding for β-galactosidase were treated with the test substances for 48 h. The β-galactosidase enzymatic activity was measured in a colorimetric assay using the substrate chlorophenol red β-D-galactopyranoside (Roche Diagnostics, Mannheim Germany). Formation of chlorophenol red was measured at 540 nm. For the test, all compounds were diluted in DMSO. 17β-estradiol (10 nM; Sigma, Deisenhofen, Germany) served as positive control and DMSO was used as vehicle control. All compounds, were dose dependently tested in a concentration range of 0.01–100 µM, using technical quadruplicates and biological triplicates.

hTRPML2-YFP = biological target: T2, hTRPML2-YFP (Homo sapiens, UniProt Q8IZK6); assay: Fluo-4 Ca2+ influx assay, HEK293 stably expressing hTRPML2-YFP, activated with ML-SA1
T2 construct: expressed in transfected cells
T2 sequence (Q8IZK6 1-566): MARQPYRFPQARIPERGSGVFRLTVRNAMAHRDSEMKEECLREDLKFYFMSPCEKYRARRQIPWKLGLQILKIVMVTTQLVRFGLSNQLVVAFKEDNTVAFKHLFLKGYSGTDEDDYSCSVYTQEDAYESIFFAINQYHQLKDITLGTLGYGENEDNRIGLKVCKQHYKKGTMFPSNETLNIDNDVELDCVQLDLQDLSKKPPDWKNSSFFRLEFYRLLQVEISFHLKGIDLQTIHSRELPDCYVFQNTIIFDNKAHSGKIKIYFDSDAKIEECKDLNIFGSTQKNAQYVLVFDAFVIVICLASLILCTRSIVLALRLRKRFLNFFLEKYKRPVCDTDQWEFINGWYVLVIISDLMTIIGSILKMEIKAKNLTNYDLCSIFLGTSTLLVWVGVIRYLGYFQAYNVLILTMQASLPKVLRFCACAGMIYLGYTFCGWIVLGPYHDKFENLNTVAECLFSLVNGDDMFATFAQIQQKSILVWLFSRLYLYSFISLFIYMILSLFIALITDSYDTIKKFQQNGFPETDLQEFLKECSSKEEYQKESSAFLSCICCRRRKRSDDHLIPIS

LC3 = assay: Autophagy assay, LC3 immunoblot in human fibroblasts (Fed/Hbss, with bafilomycin A1); details: Hbss starvation, with BafA1
Method: 5 × 10^4 wild-type human fibroblasts were seeded in a 12-well plate and treated overnight with DMSO or different TRPML1 inhibitors (EDME, PRU-10, PRU-12). The day after, cells were treated for 3 h in full media (Fed) or HBSS supplemented with 10 mM HEPES (nutrient starved) in presence of DMSO or different TRPML1 inhibitors (EDME, PRU-10, PRU-12). For autophagic flux experiments, cells were co-treated with 100 nM of bafilomycin A1 (Sigma).
Total cell lysates were prepared using TRIS HCl 10 mM pH 8.0 and 0.2% SDS supplemented with protein and phosphatase inhibitors (Sigma). Protein concentration was determined using the Bradford method. After SDS–polyacrylamide gel electrophoresis (PAGE) and immunoblotting, the protein recognized by the specific antibody was visualized by chemiluminescence methods (Luminata Crescendo Western HRP substrate, Millipore) using HRP-conjugated anti-rabbit or anti-mouse secondary antibodies (Cell Signalling). Images were acquired using Li-Cor Odyssey Fc Imaging System and densitometric quantification of unsaturated images was performed using ImageJ software (NIH). Uncropped and unprocessed western blot scans are provided as Fig. S1. The following primary antibodies were used: LC3 (Novus Cat. No. NB100-2220, 1:1000 in 5% milk), TFEB (Cell Signaling Cat. No. 4240, 1:1000 in 5% BSA) and β-actin (Santa Cruz Cat. No. Sc-47778, 1: 1000 in 5% BSA).

hTRPML3-YFP = biological target: T3, hTRPML3-YFP (Homo sapiens, UniProt Q8TDD5); assay: Fluo-4 Ca2+ influx assay, HEK293 stably expressing hTRPML3-YFP, activated with ML-SA1
T3 construct: expressed in transfected cells
Method: To identify inhibitors of TRPML1 and TRPML3, the Spectrum Collection compound library (MS Discoveries; 2000 compounds) and additional 430 bioactive compounds were screened. To this end, fluorometric Ca^2+ influx assays were performed by using the calcium dye Fluo-4/AM (Invitrogen, Thermo Fisher Scientific, Waltham, MA, USA) and a custom-made fluorescence imaging plate reader built into a robotic liquid handling station (Freedom Evo 150, Tecan, Männedorf, Switzerland). All measurements were done in a HEPES buffered solution (HBS), containing 132 mM NaCl, 6 mM KCl, 1 mM MgCl2, 1 mM CaCl2, 5.5 mM D-glucose, 10 mM HEPES, pH 7.4. Screening compounds dissolved in DMSO (10 mM) were prediluted in 150 mM NaCl, 20 mM HEPES, pH 7.4, to a concentration of 200 µM. For primary screens, HEK293 stably expressing plasma membrane-targeted TRPML1 or TRPML3 were trypsinized and resuspended in cell culture medium supplemented with 4 µM Fluo-4/AM. After incubation at 37 °C for 30 min, the cell suspension was briefly centrifuged resuspended in HBS, and dispensed into black pigmented, clear-bottom 384-well microwell plates (Greiner μClear, Frickenhausen, Germany). Plates were placed into the FLIPR and fluorescence signals (excitation 470 nm, emission 515 nm) were recorded with a Zyla 5.5 camera (Andor, Belfast, UK) and the μManager software like previously described. In a first video, compound libraries were successively added to the cells with the Tecan 96-tip multichannel arm to a final concentration of 20 µM to map unspecific effects like autofluorescence or toxicity. In a second step the agonist ML-SA1 was pipetted in each well and fluorescence signals were recorded for 10 min. Analyses were done by calculating fluorescence intensities for each well and background areas with ImageJ (National Institutes of Health, Bethesda, MD, USA). Finally, the background was subtracted and the fluorescence intensities were normalized to initial intensities (F/F0). Concentration response curves were generated by the same procedure but compounds were manually prediluted in 96-well plates containing HBS, now supplemented with 0.1% bovine serum albumin. Here data was fitted to a four-parameter Hill equation to obtain Imin, Imax, IC50), and the Hill coefficient n.

[1] = TRPML2 IC50, Fluo-4, 5 µM ML-SA1, Table S1
[2] = Fluo-4, 5 µM ML-SA1, Table S1, read-out: TRPML3 IC50

T3 sequence (Q8TDD5 whole entry): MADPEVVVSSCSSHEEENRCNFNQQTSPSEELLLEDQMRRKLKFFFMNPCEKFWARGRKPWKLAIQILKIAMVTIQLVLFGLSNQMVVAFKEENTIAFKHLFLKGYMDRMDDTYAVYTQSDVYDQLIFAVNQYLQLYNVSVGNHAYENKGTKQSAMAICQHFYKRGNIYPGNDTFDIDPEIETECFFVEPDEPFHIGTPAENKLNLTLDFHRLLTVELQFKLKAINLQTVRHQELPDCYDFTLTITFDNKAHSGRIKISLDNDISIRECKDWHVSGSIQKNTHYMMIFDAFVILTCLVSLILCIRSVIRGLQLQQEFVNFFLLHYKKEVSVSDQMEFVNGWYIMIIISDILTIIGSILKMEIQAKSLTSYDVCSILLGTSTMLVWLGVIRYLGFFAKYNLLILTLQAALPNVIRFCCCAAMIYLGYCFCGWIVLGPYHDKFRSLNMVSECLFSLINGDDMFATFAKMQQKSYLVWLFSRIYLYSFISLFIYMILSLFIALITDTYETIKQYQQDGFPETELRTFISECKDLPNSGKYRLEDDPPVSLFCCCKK
T1 sequence (P03372 whole entry): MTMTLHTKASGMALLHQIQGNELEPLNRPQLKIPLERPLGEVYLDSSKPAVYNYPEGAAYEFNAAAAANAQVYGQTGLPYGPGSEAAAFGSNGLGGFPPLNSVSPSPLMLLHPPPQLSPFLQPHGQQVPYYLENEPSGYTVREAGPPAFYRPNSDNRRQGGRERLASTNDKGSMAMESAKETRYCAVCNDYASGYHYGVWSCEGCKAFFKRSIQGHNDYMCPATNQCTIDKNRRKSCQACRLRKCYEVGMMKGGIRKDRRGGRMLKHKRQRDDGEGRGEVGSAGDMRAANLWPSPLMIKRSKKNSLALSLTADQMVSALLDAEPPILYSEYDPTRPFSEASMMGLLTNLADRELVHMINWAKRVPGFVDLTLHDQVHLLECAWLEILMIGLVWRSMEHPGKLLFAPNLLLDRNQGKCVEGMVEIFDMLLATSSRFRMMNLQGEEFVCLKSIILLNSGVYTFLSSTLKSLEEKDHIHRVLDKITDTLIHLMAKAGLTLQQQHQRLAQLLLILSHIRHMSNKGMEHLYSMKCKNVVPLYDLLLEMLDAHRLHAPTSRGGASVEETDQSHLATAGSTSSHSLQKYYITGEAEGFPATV

For COc1ccc2c(c1)CC[C@@H]1[C@@H]2CC[C@]2(C)[C@@H](O)CC[C@@H]12 [EDME, 17β-estradiol methyl ether], the “effect/efficacy at ERα” value (human ERα) was “comparably strong effects”, the IC50 (hTRPML2-YFP; Fluo-4, 5 µM ML-SA1, Table S1, read-out: TRPML2 IC50) was 5.85 µM and 5.9 µM and the “concentration showing efficacy on autophagy (LC3)” value (“concentration showing efficacy” for short) (LC3) was 1 µM. It also gave an IC50 (hTRPML3-YFP) of 19.5 µM.
In the case of C=Cc1ccc2c(c1)CC[C@@H]1[C@@H]2CC[C@]2(C)[C@@H](O)CC[C@@H]12 [PRU-10], the “effect/efficacy at ERα” value (human ERα) is reported as “relatively low efficacy; also recorded: weakest effects”, the IC50 (hTRPML2-YFP; [1]) is reported as 5.4 µM and the “concentration showing efficacy” value (LC3) is reported as 3 µM. The IC50 (hTRPML3-YFP; [2]) was 15.8 µM.
For CC(=O)c1ccc2c(c1)CC[C@@H]1[C@@H]2CC[C@]2(C)[C@@H](O)CC[C@@H]12 [PRU-12], the “effect/efficacy at ERα” value (human ERα) was “relatively low efficacy; also recorded: weakest effects”, the IC50 (hTRPML2-YFP; [1]) was 5.28 µM and the “concentration showing efficacy” value (LC3) was 1 µM. The IC50 (hTRPML3-YFP; [2]) was 14.1 µM.
